# Columns and labels:
# [1] = test system: Rattus norvegicus; assay: Tested for the anticonvulsant activity administered 60 min orally before MES induction; assay type: functional; settings: po, 1 h
# [2] = target: T1, Sodium channel alpha subunits; brain (Types I, II, III) (Rattus norvegicus, UniProt P04775+P04774+P08104); assay: Inhibition of [3H]saxitoxin binding to rat brain sodium channel; assay type: tissue-based
# [3] = target: T1, Sodium channel alpha subunits; brain (Types I, II, III); assay: Inhibition of [3H]batrachotoxin binding to rat brain sodium channel
# [4] = target: Sigma non-opioid intracellular receptor 1 (Rattus norvegicus, UniProt Q9R0C9); assay: Inhibition of [3H]pentazocine binding to Opioid receptor sigma 1
# [5] = Protective index (PI) is the ratio of TD50 in the rotarod test over the ED50 in the anticonvulsant test.; assay type: functional
# [6] = species on record: Mus musculus; assay: Toxic dose causing 50% treated mice fall from the rotarod was evaluated
# [7] = Lethal dose in rats; assay type: toxicity; settings: rat, in vivo
# Sigma non-opioid intracellular receptor 1, sequence (Q9R0C9 whole entry): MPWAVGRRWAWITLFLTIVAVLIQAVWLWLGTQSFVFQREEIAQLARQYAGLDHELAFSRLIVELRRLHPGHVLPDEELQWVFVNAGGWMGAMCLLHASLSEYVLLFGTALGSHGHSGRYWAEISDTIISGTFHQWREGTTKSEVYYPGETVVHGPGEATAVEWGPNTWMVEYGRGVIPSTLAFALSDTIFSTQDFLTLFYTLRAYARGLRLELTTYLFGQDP
Compound,ED50 [1],IC50 [2],IC50 [3],IC50 [4],PI [5],TD50 [6],IC50 ([3]; read-out: IC50),LD50 [7]
C[C@H](NCc1ccc(OCc2ccccc2)cc1)C(=O)O,> 100 mg/kg,> 300 µM,150.8 µM,,,,,
C[C@@H](NCc1ccc(OCCCc2ccccc2)cc1)C(N)=O,12.6 mg/kg,> 300 µM,7.8 µM,0.28 µM,102,1280 mg/kg,,
C[C@H](NCc1ccc(OCCCc2ccccc2)cc1)C(N)=O,6.7 mg/kg,> 300 µM,13.2 µM,0.0193 µM,87.2,584 mg/kg,,
CS(=O)(=O)O.C[C@H](NCc1ccc(OCc2cccc(F)c2)cc1)C(N)=O [SAFINAMIDE MESYLATE],8 mg/kg,> 300 µM,,0.0197 µM,78.2,626 mg/kg,8.2 µM,
CNC(=O)[C@@H](CO)NCc1ccc(OCc2cccc(F)c2)cc1,6.4 mg/kg,> 300 µM,17.9 µM,6.6 µM,92.6,593 mg/kg,,
C[C@H](NCc1ccc(NCc2cccc(F)c2)cc1)C(N)=O,6.6 mg/kg,> 300 µM,13.9 µM,0.0344 µM,88.3,583 mg/kg,,
C[C@@H](NCc1ccc(NCc2cccc(F)c2)cc1)C(N)=O,1.7 mg/kg,> 300 µM,11.3 µM,0.28 µM,160,272 mg/kg,,
CNC(=O)[C@H](CO)NCc1ccc(OCc2cccc(F)c2)cc1,13 mg/kg,> 300 µM,26.3 µM,0.588 µM,70.4,915 mg/kg,,
C[C@@H](NCc1ccc(OCc2cccc(F)c2)cc1)C(N)=O,7.2 mg/kg,> 300 µM,8.5 µM,0.28 µM,87.8,584 mg/kg,,
Nc1nnc(-c2cccc(Cl)c2Cl)c(N)n1 [LAMOTRIGINE],2.2 mg/kg,> 100 µM,185.9 µM,> 10 µM,38.2,84 mg/kg,,
C[C@H](NCc1ccc(OCCCCCc2ccccc2)cc1)C(N)=O,12.5 mg/kg,> 300 µM,1.4 µM,> 10 µM,80.8,1010 mg/kg,,
COc1ccc2c(c1)[C@]13CCCC[C@@H]1[C@H](C2)N(C)CC3 [DEXTROMETHORPHAN],12.9 mg/kg,> 100 µM,1.3 µM,,,,,234 mg/kg
C[C@H](NCc1ccc(OCCCCc2ccccc2)cc1)C(N)=O,12.4 mg/kg,> 300 µM,1.1 µM,0.55 µM,81,1000 mg/kg,,
COc1ccc(CN[C@@H](C)C(N)=O)cc1,> 100 mg/kg,> 300 µM,145.8 µM,> 10 µM,,,,

# From ChEMBL document CHEMBL1132100, “Sodium channel activity and sigma binding of 2-aminopropanamide anticonvulsants” (Bioorg Med Chem Lett, 1999)
